In patent publication US8629273B2, “Diazinylpyrazolyl compounds” (Bayer Intellectual Property GmbH, priority 2009, dated 2014):

How the values were obtained:
Boophilus microplus = Boophilus microplus test (BOOPMI injection); assay type: in vivo; settings: 20 μg/animal, injected into the abdomen, after 7 days
Procedure: Solvent: Dimethyl Sulphoxide To produce a suitable preparation of active compound, 10 mg of active compound are mixed with 0.5 ml of solvent, and the concentrate is diluted with water to the desired concentration. The active compound solution is injected into the abdomen (Boophilus microplus) and the animals are transferred into dishes and stored in a climatized room. The activity is monitored for deposition of fertile eggs. After 7 days, the activity in % is determined. 100% means that none of the ticks has laid fertile eggs.

adult Musca domestica = assay: Musca domestica test (MUSCDO); assay type: in vivo; settings: treated sponge
Procedure: Solvent: Dimethyl sulphoxide To prepare a suitable preparation of active compound, 10 mg of active component are mixed with 0.5 ml of dimethyl sulphoxide, and the concentrate is diluted with water to the desired concentration. Vessels containing a sponge which had been treated with the active compound preparation of the desired concentration are populated with adult Musca domestica. After the desired period of time, the kill in % is determined. 100% means that all flies have been killed; 0% means that none of the flies have been killed.

Ctenocephalides felis = Ctenocephalides felis oral (CTECFE); assay type: in vivo; settings: 100 ppm in citrated cattle blood, after 2 days
Procedure: Solvent: 1 part by weight of dimethyl sulphoxide To produce a suitable preparation of active compound, 10 mg of active compound are mixed with 0.5 ml of dimethyl sulphoxide. One part of the concentrate is diluted with citrated cattle blood, and the desired concentration is prepared. 20 unfed adult fleas (Ctenocephalides felis) are placed into a chamber whose top and bottom ends are closed with gauze. A metal cylinder whose bottom end is closed with parafilm is placed onto the chamber. The cylinder contains the blood/active compound preparation, which can be taken up by the fleas through the parafilm membrane. After 2 days, the kill in % is determined. 100% means that all fleas have been killed; 0% means that none of the fleas have been killed.

[1] = logP by HPLC on reversed-phase columns (C 18), EU Guideline 79/831 Annex V.A8; assay type: physicochemical; settings: for chromatographic logP: reversed-phase HPLC column (C 18)
[2] = tested on: larvae of the mustard beetle (Phaedon cochleariae); assay: Phaedon test (PHAECO spray treatment); assay type: in vivo; settings: after 7 days
Procedure: (§1) Solvents: 78.0 parts by weight of acetone • • 1.5 parts by weight of dimethyl formamide Emulsifier: 0.5 part by weight of alkylaryl polyglycol ether To produce a suitable preparation of active compound, 1 part by weight of active compound is mixed with the stated amounts of solvent and emulsifier, and the concentrate is diluted with emulsifier-containing water to the desired concentration. Discs of Chinese cabbage leaves (Brassica pekinensis) are sprayed with an active compound preparation of the desired concentration and, after drying, populated with larvae of the mustard beetle (Phaedon cochleariae). After 7 days, the activity in % is determined. 100% means that all beetle larvae have been killed; 0% means that none of the beetle larvae have been killed. The test was carried out and evaluated as described in Example B.4.

[3] = tested on: caterpillars of the army worm (Spodoptera frugiperda); assay: Spodoptera frugiperda test (SPODFR spray treatment); assay type: in vivo; settings: after 7 days
Procedure: as §1, with “maize” for “Chinese cabbage”, “(Zea mays)” for “(Brassica pekinensis)”, “caterpillars” for “larvae”, “army worm (Spodoptera frugiperda).” for “mustard beetle (Phaedon cochleariae).”, “caterpillars” for “beetle larvae”, “B.5.” for “B.4.”

Lucilia cuprina larvae = assay: Lucilia cuprina test (LUCICU); assay type: in vivo; settings: 100 ppm, treated horse meat, after 2 days
Procedure: Solvent: Dimethyl Sulphoxide To produce a suitable preparation of active compound, 10 mg of active compound are mixed with 0.5 ml of dimethyl sulphoxide, and the concentrate is diluted with water to the desired concentration. Containers containing horse meat treated with the active compound preparation of the desired concentration are populated with Lucilia cuprina larvae. After 2 days, the kill in % is determined. 100% means that all larvae have been killed; 0% means that none of the larvae have been killed.

[4] = ** LC-MS in the neutral range, pH 7.8, 0.001 molar aqueous ammonium bicarbonate and acetonitrile
[5] = * LC-MS in the acidic range, pH 2.7, 0.1% aqueous formic acid and acetonitrile

SMILES	activity (no deposition of fertile eggs) (Boophilus microplus) [%]	kill (Ctenocephalides felis) [%]	logP [1, 4]	activity (beetle larvae killed) ([2]; 100 g/ha) [%]	kill (Lucilia cuprina larvae) [%]	logP [1, 5]	further results
FC(F)(F)c1cc(Cl)cc(-c2c(C(F)(F)C(F)(F)F)nn(-c3ncccn3)c2N=Cc2ccccc2)c1 [Example 1-42]	100	95	5.46**	100	100	–	kill (adult Musca domestica; 100 ppm): 100%; activity (caterpillars killed) ([3]; 100 g/ha): 100%
COc1nccnc1-n1nc(C(F)(F)F)c(-c2cc(Cl)cc(C(F)(F)F)c2)c1N=CN(C)C [Example 2-1]	–	80	–	–	–	4.52*	–
COc1ccc(C=Nc2c(-c3cc(Cl)c4c(c3)OCO4)c(C(F)(F)C(F)F)nn2-c2nccnc2OC)cc1 [Example 2-12]	–	–	4.41**	100	–	–	activity (caterpillars killed) ([3]; 100 g/ha): 100%
COc1nccnc1-n1nc(C(F)(F)F)c(-c2cc(Cl)cc(C(F)(F)F)c2)c1N=Cc1ccccc1 [Example 2-9]	100	90	5.56**	100	100	–	kill (adult Musca domestica; 20 ppm): 100%
Cc1cnc(-n2nc(C(F)(F)F)c(-c3ccc(Cl)c(Cl)c3)c2N=CN(C)C)nc1 [Example 1-6]	–	–	–	–	–	3.58*	–
CN(C)C=Nc1c(-c2ccc(Cl)cc2)c(C(F)(F)Cl)nn1-c1ncccn1 [Example 1-4]	–	–	–	100	–	2.8*	–
CN(C)C=Nc1c(-c2ccc(Cl)c(Cl)c2)c(C(F)(F)F)nn1-c1ncccn1 [Example 1-3]	100	100	–	100	100	3.37*	–
COC=Nc1c(-c2ccc(Cl)c(C(F)(F)F)c2)c(C(F)(F)F)nn1-c1ncccn1 [Example 1-91]	–	–	–	–	–	3.71	–
CN(C)C=Nc1c(-c2ccc(Cl)cc2)c(C(F)(F)F)nn1-c1ncc(Cl)cn1 [Example 1-108]	–	–	–	–	–	3.47*	–
FC(F)(F)c1cc(Cl)cc(-c2c(C(F)(F)F)nn(-c3ncccn3)c2N=Cc2cccc(Br)c2)c1 [Example 1-39]	100	80	–	100	100	–	kill (adult Musca domestica; 100 ppm): 100%
COc1cc(C=Nc2c(-c3cc(Cl)cc(C(F)(F)F)c3)c(C(F)(F)C(F)F)nn2-c2ncccn2)cc(OC)c1OC [Example 1-29]	100	95	4.67**	100	100	–	kill (adult Musca domestica; 100 ppm): 100%; activity (caterpillars killed) ([3]; 100 g/ha): 100%
COc1nccnc1-n1nc(C(F)(F)F)c(-c2cc(Cl)c(Cl)c(Cl)c2)c1/N=C/c1ccccc1 [Example 2-15, 1-(3-methoxypyrazin-2-yl)-N-phenylmethylene-4-(3,4,5-trichlorophenyl)-3-(trifluoromethyl)-1H-pyrazol-5-amine]	100	90	–	–	100	–	chromatographic logP ([1]; pH 7.8, ** LC-MS in the neutral range, pH 7.8, 0.001 molar aqueous ammonium bicarbonate and acetonitrile): 6.03
COc1ccc(-c2c(C(F)(F)F)nn(-c3ncccn3)c2N=CN(C)C)cc1 [Example 1-5]	100	–	–	–	–	1.87*	–
CCOC(C)=Nc1c(-c2cc(Cl)cc(C(F)(F)F)c2)c(C(F)(F)F)nn1-c1ncccn1 [Example 1-14]	80	90	5.01**	100	100	–	kill (adult Musca domestica; 100 ppm): 80%
FC(F)(F)c1cc(Cl)cc(-c2c(C(F)(F)F)nn(-c3ncccn3)c2NCc2ccc(Cl)cc2)c1 [compound (XXIII), reference compound]	–	–	–	–	–	–	activity (beetle larvae killed) ([2]; 20 g/ha): no activity
FC(F)(F)c1cc(Cl)cc(-c2c(C(F)(F)F)nn(-c3ncccn3)c2N=Cc2ccc(Cl)cc2)c1 [Example 1-16]	100	–	5.53**	100	–	–	activity (beetle larvae killed) ([2]; 20 g/ha): 100%
FC(F)C(F)(F)c1nn(-c2ncccn2)c(N=Cc2ccc(Cl)cc2)c1-c1cc(Cl)cc(C(F)(F)F)c1 [Example 1-20]	100	95	5.37**	100	100	–	kill (adult Musca domestica; 100 ppm): 100%; activity (caterpillars killed) ([3]; 100 g/ha): 100%
CCOc1nccnc1-n1nc(C(F)(F)F)c(-c2cc(Cl)cc(C(F)(F)F)c2)c1N=CN(C)C [Example 2-2]	–	–	–	–	–	4.86*	–
Cc1nn(-c2ncccn2)c(N=CN(C)C)c1-c1ccc(Cl)cc1 [Example 1-7]	–	–	–	100	–	1.09*	–
CN(C)C=Nc1c(-c2cccc(Cl)c2)c(C(F)(F)F)nn1-c1ncccn1 [Example 1-8]	–	–	–	100	–	2.65*	–
FC(F)(F)c1nn(-c2ncccn2)c(N=Cc2ccccc2)c1-c1cc(Br)c2c(c1)CCO2 [Example 1-32]	100	100	4.11**	100	100	–	–
CN(C)C=Nc1c(-c2cc(Cl)cc(C(F)(F)F)c2)c(C(F)(F)F)nn1-c1ncccn1 [Example 1-2]	95	100	3.84**;	100	100	3.89*	–
COc1ccc(C=Nc2c(-c3cc(Cl)cc(C(F)(F)F)c3)c(C(F)(F)C(F)F)nn2-c2nccnc2OC)cc1 [Example 2-10]	–	–	5.29**	–	–	–	–
CN(C)/C=N/c1c(-c2cc(Cl)cc(Br)c2)c(C(F)(F)F)nn1-c1ncccn1 [Example 1-9, N′-[4-(3-bromo-5-chlorophenyl)-1-(pyrimidin-2-yl)-3-(trifluoromethyl)-1H-pyrazol-5-yl]-N,N-dimethylimidoformamide]	100	100	–	100	100	–	chromatographic logP ([1]; pH 2.7, * LC-MS in the acidic range, pH 2.7, 0.1% aqueous formic acid and acetonitrile): 3.71; activity (caterpillars killed) ([3]; 100 g/ha): 100%
CN(C)C=Nc1c(-c2cc(Cl)cc(C(F)(F)F)c2)c(C(F)(F)F)nn1-c1cnccn1 [Example 2-4]	–	–	–	–	–	4.32*	–
FC(F)(F)c1cc(Cl)cc(-c2c(C(F)(F)F)nn(-c3ncccn3)c2NCc2ccccc2)c1 [compound (XX), reference compound]	–	–	–	–	–	–	activity (beetle larvae killed) ([2]; 4 g/ha): 0%; activity (caterpillars killed) ([3]; 20 g/ha): 0%
COc1ccc(C=Nc2c(-c3cc(Cl)c4c(c3)OCO4)c(C(F)(F)F)nn2-c2nccnc2OC)cc1 [Example 2-5]	100	100	4.5**	–	100	–	–
FC(F)(F)c1cc(Cl)cc(-c2c(C(F)(F)F)nn(-c3ncccn3)c2N=Cc2ccccc2Br)c1 [Example 1-31]	100	90	5.64**	100	100	–	kill (adult Musca domestica; 20 ppm): 90%
CC(C)Oc1nccnc1-n1nc(C(F)(F)F)c(-c2cc(Cl)cc(C(F)(F)F)c2)c1N=CN(C)C [Example 2-3]	–	–	–	–	–	5.17*	–
